From US20240262814A1, “MODULATORS OF TREX1” (Constellation Pharmaceuticals, Inc., priority 2021, published 2024)

Tests used:
mouse TREX1 = molecular target: T1, mouse TREX1 (Mus musculus, UniProt Q91XB0); assay: mTREX1 Biochemical Assay (fluorescence, dsDNA substrate degradation); conditions: full length mouse TREX1, 4 h pre-incubation, 18 h reaction at 25° C.
T1 construct: N-terminally His-Tev tagged full length mouse TREX1; made in house; host or cells: E. coli
T1 sequence (Q91XB0 1-314): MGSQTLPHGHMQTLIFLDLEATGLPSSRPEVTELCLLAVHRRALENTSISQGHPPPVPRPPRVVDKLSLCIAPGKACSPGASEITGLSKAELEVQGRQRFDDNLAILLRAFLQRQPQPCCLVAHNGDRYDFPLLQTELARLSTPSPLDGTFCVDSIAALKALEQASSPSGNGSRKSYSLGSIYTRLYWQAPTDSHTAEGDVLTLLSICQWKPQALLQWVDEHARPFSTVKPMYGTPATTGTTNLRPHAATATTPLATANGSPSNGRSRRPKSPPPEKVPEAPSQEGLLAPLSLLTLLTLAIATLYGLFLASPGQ
Description: (§1) Degradation of the dsDNA liberates free fluorophore to produce a fluorescent signal. Specifically, 7.5 p L of N-terminally His-Tev tagged full length mouse TREX1 (expressed in E. coli and purified in house) in reaction buffer (50 mM Tris, 150 mM NaCl, 2 mM DTT, 0.1 mg/mL BSA, 0.01% (w/v) Tween-20, 5 mM MgCl2, pH 7.4) was added to a 384-well Black ProxiPlate Plus (PerkinElmer) which already contained compound (150 nL) at varying concentrations as a 10 point dose-response in DMSO. The plate was incubated at 25° C. for 4 hours. Reactions were initiated by adding 7.5 μL of dsDNA substrate (Strand A: 5′ TEX615/GCT AGG CAG 3′; Strand B: 5′ CTG CCT AGC/IAbRQSp (Integrated DNA Technologies)) in reaction buffer. Final concentrations were 6 pM TREX1, 60 nM dsDNA substrate in reaction buffer with 1.0% DMSO (v/v). After 18 hours at 25° C., reactions were quenched by the addition of 2 p L of 500 mM EDTA. Final concentrations in the quenched reaction were 5.3 pM TREX1, 53 nM DNA and 59 mM EDTA in a volume of 17 p L. After a 5-minute incubation at room temperature, plates were read in an EnVision plate reader (PerkinElmer) measuring fluorescence at 615 nm following excitation w/ 570 nm light. IC50 values were calculated by comparing the measured fluorescence at 615 nm relative to control wells pre-quenched w/ EDTA (100% inhibition) and no inhibitor (0% inhibition) controls as using non-linear least square four parameter fits and either Genedata or GraphPad Prism (GraphPad Software, Inc.).

human TREX2 = molecular target: T2, human TREX2 (Homo sapiens, UniProt Q9BQ50); assay: hTREX2 Biochemical Assay (selectivity hTREX1 vs hTREX2); conditions: biochemical selectivity for hTREX1 vs hTREX2
T2 construct: human TREX2 (residues M44-A279, expressed in E. coli); made in house; host or cells: E. coli
T2 sequence (Q9BQ50 44-279 isoform Q9BQ50-1): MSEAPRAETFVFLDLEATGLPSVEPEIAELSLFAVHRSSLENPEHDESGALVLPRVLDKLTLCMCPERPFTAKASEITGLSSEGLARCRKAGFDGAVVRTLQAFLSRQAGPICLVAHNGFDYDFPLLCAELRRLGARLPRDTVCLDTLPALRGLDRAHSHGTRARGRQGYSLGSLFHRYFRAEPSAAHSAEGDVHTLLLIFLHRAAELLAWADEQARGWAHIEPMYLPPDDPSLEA
Description: Degradation of the dsDNA liberates free fluorophore to produce a fluorescent signal. Specifically, 7.5 p L of N-terminally His-Tev tagged human TREX2 (residues M44-A279, expressed in E. coli and purified in house) in reaction buffer (50 mM Tris, 150 mM NaCl, 2 mM DTT, 0.1 mg/mL BSA, 0.01% (w/v) Tween-20, 5 mM MgCl2, pH 7.4) was added to a 384-well Black ProxiPlate Plus (PerkinElmer) which already contained compound (150 nL) at varying concentrations as a 10 point dose-response in DMSO. The plate was incubated at 25° C. for 4 hours. Reactions were initiated by adding 7.5 μL of dsDNA substrate (Strand A: 5′ TEX615/GCT AGG CAG 3′; Strand B: 5′ CTG CCT AGC/IAbRQSp (IDT)) in reaction buffer. Final concentrations were 50 pM TREX2, 60 nM dsDNA substrate in reaction buffer with 1.0% DMSO (v/v). After 18 hours at 25° C., reactions were quenched by the addition of 2 μL of 500 mM EDTA. Final concentrations in the quenched reaction mixture were 44 pM TREX2, 53 nM DNA and 59 mM EDTA in a volume of 17 μL. After a 5-minute incubation at room temperature, plates were read in an EnVision plate reader (PerkinElmer) measuring fluorescence at 615 nm following excitation w/ 570 nm light. IC50 values were calculated by comparing the measured fluorescence at 615 nm relative to control wells pre-quenched w/ stop buffer (100% inhibition) and no inhibitor (0% inhibition) controls as using non-linear least square four parameter fits and either Genedata or GraphPad Prism (GraphPad Software, Inc.).

human TREX1 = molecular target: T3, human TREX1 (Homo sapiens, UniProt Q9NSU2); assay: hTREX1 Biochemical Assay (fluorescence, dsDNA substrate degradation); conditions: full length human TREX1, 4 h pre-incubation, 18 h reaction at 25° C.
T3 construct: N-terminally His-Tev tagged full length human TREX1; made in house; host or cells: E. coli
T3 sequence (Q9NSU2 1-314): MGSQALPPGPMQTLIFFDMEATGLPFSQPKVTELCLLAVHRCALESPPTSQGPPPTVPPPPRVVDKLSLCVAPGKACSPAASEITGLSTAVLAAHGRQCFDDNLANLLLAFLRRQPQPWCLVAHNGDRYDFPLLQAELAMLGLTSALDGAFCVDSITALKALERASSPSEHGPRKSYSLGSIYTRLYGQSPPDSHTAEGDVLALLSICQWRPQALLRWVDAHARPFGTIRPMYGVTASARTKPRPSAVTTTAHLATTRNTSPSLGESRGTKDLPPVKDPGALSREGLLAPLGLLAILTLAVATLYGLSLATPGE
Description: as §1, with “7.5 μL” for “7.5 p L”, “length human” for “length mouse”, “were 4” for “were 6”, “were 3.5” for “were 5.3”, “17 μL.” for “17 p L.”

Structure (SMILES) | IC50 (mouse TREX1) [nM] | hTREX1 vs hTREX2 selectivity (human TREX2) | IC50 (human TREX1) [nM]
CC(c1nc(C(=O)Nc2cnoc2)c(O)c(=O)n1C)C(c1ccccc1)c1ccc(Cl)cc1C#N (single isomer, unassigned) [Example 9 Isomer 1] | > 10 | C (C = >50 fold selective for hTREX1) | 1 to 10
CC(c1nc(C(=O)Nc2cnoc2)c(O)c(=O)n1C)C(c1ccccc1)c1cc(Cl)ccc1C#N (single isomer, unassigned) [Example 8 Isomer 3] | > 10 | C (C = >50 fold selective for hTREX1) | 1 to 10
CC(c1nc(C(=O)Nc2cnoc2)c(O)c(=O)n1C)C(c1cc(F)cc(F)c1)c1ccccc1C#N (single isomer, unassigned) [Example 11 Isomer 2] | > 10 | C (C = >50 fold selective for hTREX1) | 1 to 10
Cn1c([C@@H](C(c2ccccc2C#N)c2ccccc2C#N)C(F)(F)F)nc(C(=O)Nc2cnoc2)c(O)c1=O (single isomer, unassigned) [Example 21 Isomer 2, 2-(3,3-bis(2-cyanophenyl)-1,1,1-trifluoropropan-2-yl)-5-hydroxy-N-(isoxazol-4-yl)-1-methyl-6-oxo-1,6-dihydropyrimidine-4-carboxamide] | > 10 | C (C = >50 fold selective for hTREX1) | 10 to 100
C[C@H](c1nc(C(=O)Nc2cnoc2)c(O)c(=O)n1C)[C@H](c1ccccc1)c1ccc(C(=O)N(C)C)cc1C#N (single isomer, unassigned) [Example 16 Isomer 4, 2-(1-(2-cyano-4-(dimethylcarbamoyl)phenyl)-1-phenylpropan-2-yl)-5-hydroxy-N-(isoxazol-4-yl)-1-methyl-6-oxo-1,6-dihydropyrimidine-4-carboxamide] | < 1 | B (B = 25 to 50 fold selective for hTREX1) | < 1
CC(c1nc(C(=O)Nc2cnoc2)c(O)c(=O)n1C)C(c1ccccc1)c1ccccc1C#N (single isomer, unassigned) [Example 3 Isomer 1] | > 10 | B (B = 25 to 50 fold selective for hTREX1) | 1 to 10
CC(c1nc(C(=O)Nc2cnoc2)c(O)c(=O)n1C)C(c1ccccc1)c1ccc(Cl)cc1C#N (single isomer, unassigned) [Example 9 Isomer 2] | > 10 | B (B = 25 to 50 fold selective for hTREX1) | > 100
CC(c1nc(C(=O)Nc2cnoc2)c(O)c(=O)n1C)C(c1ccccc1)c1cc(F)ccc1C#N (single isomer, unassigned) [Example 6 Isomer 1] | > 10 | C (C = >50 fold selective for hTREX1) | 1 to 10
CC(c1nc(C(=O)Nc2cnoc2)c(O)c(=O)n1C)C(c1ccccc1)c1cc(C(=O)N(C)C)ccc1C#N (single isomer, unassigned) [Example 17 Isomer 1] | > 10 | A (A = <25 fold selective for hTREX1) | 10 to 100
CC(c1nc(C(=O)Nc2cnoc2)c(O)c(=O)n1C)C(c1ccccc1Cl)c1ccccc1C#N (single isomer, unassigned) [Example 10 Isomer 2] | > 10 | B (B = 25 to 50 fold selective for hTREX1) | 10 to 100

Second part, the compound after the results:

IC50 (mouse TREX1) [nM] | hTREX1 vs hTREX2 selectivity (human TREX2) | IC50 (human TREX1) [nM] | Structure (SMILES)
> 10 | A (A = <25 fold selective for hTREX1) | 10 to 100 | C[C@H](c1nc(C(=O)Nc2cnoc2)c(O)c(=O)n1C)[C@H](c1ccccc1)c1ccccc1Cl (single isomer, unassigned) [Example 2 Isomer 2, 2-(1-(2-chlorophenyl)-1-phenylpropan-2-yl)-5-hydroxy-N-(isoxazol-4-yl)-1-methyl-6-oxo-1,6-dihydropyrimidine-4-carboxamide]
1 to 10 | C (C = >50 fold selective for hTREX1) | < 1 | CC(c1nc(C(=O)Nc2cnoc2)c(O)c(=O)n1C)C(c1ccccc1Cl)c1ccccc1C#N (single isomer, unassigned) [Example 10 Isomer 4]
> 10 | A (A = <25 fold selective for hTREX1) | > 100 | CC(c1nc(C(=O)Nc2cnoc2)c(O)c(=O)n1C)C(c1ccccc1)c1ccccc1C#N (single isomer, unassigned) [Example 3 Isomer 2]
1 to 10 | C (C = >50 fold selective for hTREX1) | < 1 | CC(c1nc(C(=O)Nc2cnoc2)c(O)c(=O)n1C)C(c1ccccc1Cl)c1ccccc1C#N (single isomer, unassigned) [Example 10 Isomer 3]
> 10 | A (A = <25 fold selective for hTREX1) | > 100 | CC(c1nc(C(=O)Nc2cnoc2)c(O)c(=O)n1C)C(c1ccccc1)c1ccccc1C#N (single isomer, unassigned) [Example 3 Isomer 3]
